From patent US7566453B2, “Methods for treating melanomas” (Chugai Seiyaku Kabushiki Kaisha, priority 1998, dated 2009)

Experiments:
[1] = Body weight change (toxicity) of myeloma-implanted mice, Example 2; format: in vivo, SCID mouse; conditions: melphalan administration (FIG. 10)
From the text: For evaluation of antitumor activity, a xenograft model was used. Thus, KPMM2, a human myeloma cell line derived from ascites of a patient with multiple myeloma was implanted to a male SCID mouse (FOX CHASE C. B17/Icr-Scid Jcl, purchased from Nippon Klea) via the tail vein. At this time, the tumor cells grow in the bone marrow and come to produce myeloma protein (M protein) in the peripheral blood. Furthermore, this model system is very close to an actual clinical condition in that it develops major symptoms of multiple myeloma in humans such as bone disorders, elevated blood calcium, and the like.
With regard to anti-human IL-6 receptor antibody, a stock solution that had been preserved at 12.1 mg/ml was diluted in sterile phosphate buffer to make 5 mg/ml. This was given to mice at 0.2 ml per animal via the tail vein on day 8 (1 mg per mouse). The control group received sterile phosphate buffer containing no antibody in a similar manner.
Melphalan (L-PAM, manufactured by Sigma Chemical Co.) that was suspended at 0.3 or 0.1 mg/ml in 0.2% CMC (carboxymethylcellulose) solution in water was used. This was given orally at 0.1 ml per 10 g body weight of mouse (3 or 1 mg/kg weight) for 5 consecutive days starting on day 1. The control group received 0.2% CMC solution in water containing no melphalan in a similar manner. […]

[2] = tested on: KPMM2 cells; experiment: Human myeloma cell-implanted SCID mouse system, dose dependency of antibody (Example 3): survival, serum M protein; format: in vivo; conditions: for Life-elongation ratio (%): vs drug non-administration group; for Survival period: mean±standard error
Protocol: (§1) For evaluation of antitumor effects, a xenograft model animal that was produced by implanting KPMM2 cells via the tail vein was used as in Working example 2. Thus, single-cell suspensions which were prepared by passing through a mesh KPMM2 cells that were minced after having been maintained in vivo were implanted at 0.2 ml per mouse via the tail vein (6×10^6 cells per mouse). The day when the cells were implanted was set at day 0.
They were given to mice at 0.1 ml per 10 g body weight of mouse via the tail vein on day 14 to create the 50, 10, 2, and 0.4 mg/kg administration groups.
Melphalan (L-PAM, manufactured by Sigma Chemical Co.) was used as a suspension of 0.1 mg/ml in 0.2% CMC solution in water. This was given orally at 0.1 ml per 10 g body weight of mouse (1 mg/kg weight) for 5 consecutive days starting on day 7.
The experiment was carried out on the following 10 groups: (A) the melphalan and the antibody non-administration group; (B) the melphalan single-drug administration group; (C) the each dose of antibody single-drug administration group , 4 groups (50, 10, 2, 0.4 mg/kg weight); and, (D) the melphalan and the each dose of antibody combined administration group, 4 groups (50, 10, 2, 0.4 mg/kg weight). The non-administration group included 12 mice per group, the melphalan administration group 6 mice per group, whereas each of the other groups included 7 mice. Furthermore, mice of the same lineage and purchased on the same day were raised without implanting a tumor, and the animals were used as negative control for M protein detection. The amount of M protein was calculated as described in Example 2.
Indices of the drug efficacy included the survival period, and the amount of M proteins on day 30, day 35, and day 42. For analysis of the survival period, a generalized Wilcoxon's test (SPSS for Windows ver. 6, SPSS inc.) was used. A significance level of 5% or lower was considered to be significant. For analysis of the amount of M protein in the serum, the ANOVA (Analysis of variance, SPSS for windows ver. 6, SPSS inc.) was first conducted. After confirming significance, Bonferroni method (SPSS for windows ver. 6, SPSS inc.) was used, and a significance level of 5% or lower was considered to be significant.

[3] = Body weight change (toxicity) of myeloma-implanted mice, Example 3; format: in vivo, SCID mouse; conditions: melphalan administration (FIG. 16)
Protocol: as §1
With regard to anti-human IL-6 receptor antibody hPM-1, a stock solution that had been preserved at 6.57 mg/ml was diluted in sodium phosphate buffer to make each solution of 5, 1, 0.2, and 0.04 mg/ml. They were given to mice at 0.1 ml per 10 g body weight of mouse via the tail vein on day 14 to create the 50, 10, 2, and 0.4 mg/kg administration groups. The control group received the same buffer without antibody in a similar manner. […]
The experiment was carried out on the following 10 groups: (A) the melphalan and the antibody non-administration group; (B) the melphalan single-drug administration group; (C) the each dose of antibody single-drug administration group , 4 groups (50, 10, 2, 0.4 mg/kg weight); and, (D) the melphalan and the each dose of antibody combined administration group, 4 groups (50, 10, 2, 0.4 mg/kg weight). […] The amount of M protein was calculated as described in Example 2.

[4] = molecular target: T1, human IL-6 receptor (Homo sapiens, UniProt P08887); experiment: ELISA of binding to human IL-6 receptor
T1 sequence (P08887 20-468): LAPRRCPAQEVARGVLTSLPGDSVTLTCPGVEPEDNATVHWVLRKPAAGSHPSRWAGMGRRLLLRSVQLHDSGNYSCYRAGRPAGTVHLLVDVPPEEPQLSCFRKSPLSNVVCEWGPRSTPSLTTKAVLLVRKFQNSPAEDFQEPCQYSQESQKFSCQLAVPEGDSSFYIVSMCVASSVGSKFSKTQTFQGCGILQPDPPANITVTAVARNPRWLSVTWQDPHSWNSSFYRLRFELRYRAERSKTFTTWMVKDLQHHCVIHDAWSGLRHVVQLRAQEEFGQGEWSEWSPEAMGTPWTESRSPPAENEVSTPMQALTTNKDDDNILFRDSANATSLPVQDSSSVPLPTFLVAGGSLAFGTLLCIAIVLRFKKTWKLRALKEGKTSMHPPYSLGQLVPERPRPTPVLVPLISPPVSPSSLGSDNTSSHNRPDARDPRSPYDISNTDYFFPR
From the text: (§2) In order to express genes of L chain and H chain of the reshaped human PM-1 antibody thus constructed, DNA encoding the L chain or the H chain was separately inserted into a vector containing the human elongation factor 1α (HEF-1α) promoter, and a vector expressing the L chain or the H chain of the reshaped human PM-1 (hPM-1) antibody was constructed. By simultaneously inserting these two expression vectors into CHO cells, a cell line that produces reshaped human PM-1 antibody (hPM-1) was established.

[5] = molecular target: T1, human IL-6 receptor; experiment: Inhibition of binding of human IL-6 to human IL-6 receptor; conditions: compared with mouse antibody and chimeric antibody
From the text: as §2

| Compound | toxicity (inhibition of body weight gain) [1] | Life-elongation ratio (%) ([2]; melphalan 1 mg/kg orally 5 days from day 7, no antibody) | Survival period ([2]; melphalan 1 mg/kg orally, 5 consecutive days from day 7, no antibody) | Life-elongation ratio (%), value in parentheses ([2]; melphalan 1 mg/kg, no antibody, melphalan single-drug administration group as control) | life elongation effect (survival period) ([2]; melphalan alone, 1 mg/kg) | amount of M protein in the serum on day 30 ([2]; melphalan single-drug administration, 1 mg/kg (FIG. 11)) | toxicity (inhibition of body weight gain) [3] | ability to bind to human IL-6 receptor [4] | inhibition of the binding of human IL-6 to human IL-6 receptor [5] | life elongation effect (survival period) ([2]; antibody single-drug administration, 50, 10, 2, 0.4 mg/kg) | amount of M protein in the serum on day 30 ([2]; antibody single-drug administration, 50, 10, 2, 0.4 mg/kg on day 14 (FIG. 11)) | Life-elongation ratio (%) ([2]; hPM-1 0.4 mg/kg on day 14, CMC control) | Survival period ([2]; hPM-1 0.4 mg/kg via the tail vein on day 14, CMC control) | Life-elongation ratio (%) ([2]; hPM-1 2 mg/kg on day 14, CMC control) | Survival period ([2]; hPM-1 2 mg/kg via the tail vein on day 14, CMC control) | Life-elongation ratio (%) ([2]; hPM-1 10 mg/kg on day 14, CMC control) | Survival period ([2]; hPM-1 10 mg/kg via the tail vein on day 14, CMC control) | Life-elongation ratio (%) ([2]; hPM-1 50 mg/kg on day 14, CMC control) | Survival period ([2]; hPM-1 50 mg/kg via the tail vein on day 14, CMC control) |
| --- | --- | --- | --- | --- | --- | --- | --- | --- | --- | --- | --- | --- | --- | --- | --- | --- | --- | --- | --- |
| NC(Cc1ccc(N(CCCl)CCCl)cc1)C(=O)O (stereo not shown) [melphalan] | caused toxicity in mice and inhibited body weight gain | 142% | 58.2 ± 1.8 | 100% | significant life elongation effect | significantly inhibited | caused toxicity to mice and inhibited body weight gain | – | – | – | – | – | – | – | – | – | – | – | – |
| hPM-1: reshaped human PM-1 antibody: CDRs of mouse anti-IL-6 receptor antibody PM-1 grafted to human antibody, produced in CHO cells | – | – | – | – | – | – | – | confirmed by ELISA | inhibited the binding of human IL-6 to human IL-6 receptor in a similar manner to that of mouse antibody and chimeric antibody | none of the doses in the antibody single-drug administration group gave a significant life elongation effect | none of the doses significantly inhibited the amount of M protein | 98% | 40.3 ± 1.2 | 101% | 41.4 ± 1.3 | 99% | 40.4 ± 1.7 | 101% | 41.6 ± 1.0 |
